Patent publication US9598426B2, “Organic compounds” (INTRA-CELLULAR THERAPIES, INC., priority 2013, dated 2017)

Experiments:
C57BL/6 mice = assay: Haloperidol induced catalepsy model (bar grip test, step down latency); format: in vivo, mouse; conditions: haloperidol 3 mg/Kg PO, male C57BL/6 mice, compound PO
Source text: Haloperidol Induced Catalepsy Model
To evaluate the potential beneficial effects to motor defects present in schizophrenics treated with typical and atypical antipsychotic agents and in Parkinson's disease patients, the compounds of the invention may be tested in a reversal of catalepsy model in which motor freezing, or catalepsy, is induced by potent dopamine D2 receptor antagonists such as haloperidol or risperidone. The method uses the “bar grip test”, in which the front paws of the mouse are placed so as to grip a 3 mm-diameter, suspended wooden bar. A “step down latency” is measured by recording the time until the mouse removes its paws from the wooden bar to the floor surface. Catalepsy is a freezing of the musculature that prevents the mouse from moving off the bar. […]
A catalepsy score is recorded for each mouse at 2, 3, 4, and 6 hours after administration of drugs. […] The latency until the mouse steps both paws down from the bar to the floor surface (i.e., step down latency) is recorded up to 120 sec. […] If none of the 10 attempts are beyond 10 sec, the longest duration recorded is used as the catalepsy score. Otherwise, the initial cataleptic duration (>10 sec) is recorded during the 120 sec testing time. Mean step down latency is calculated for each treatment group.

rats = assay: Novel Object Recognition (NOR) assay; format: in vivo; conditions: PO, administered to a rat 2 hours before T1 (acquisition); 24 h interval
Source text: Novel Object Recognition Assay
To measure the cognition-enhancing effects of the compounds of the invention, the candidate compounds may be evaluated in a Novel Object Recognition (NOR) assay. This assay protocol is described in detail in Ennaceur et al., Behav. Brain Res. (1988) 31:47-59 and Prickaerts et al., Eur. J. Pharmacol. (1997) 337:125-136, the contents of each of which are incorporated by reference in their entirety. In this protocol, the rats are introduced to a chamber at time T1 and allowed to interrogate two identical “familiar objects” for six minutes. Twenty-four hours later, they are re-introduced to this chamber, where one of the familiar objects has been replaced with a novel object. The “discrimination index”, a measure of the time spent in close proximity to the novel over the familiar object, may then be measured. Since rodents will forget the original experiment at T1 within 4 hours, this test with a 24 h interval is a measure of strong cognitive enhancement.
This assay protocol can be modified in order to evaluate different phases of memory. There are three general phases of memory, namely, acquisition, consolidation and retrieval. In this modified protocol, the rats may be dosed with the candidate compound two hours before T1 and tested 24 h later without additional dosing. This is a test of the acquisition process. […]

CC(=O)c1ccc(Cn2nc3c(c2Nc2ccc(F)cc2)C(=O)N(C)C2=NC(C)(C)CN23)cc1 [Example 1, 7,8-Dihydro-2-(4-acetylbenzyl)-3-(4-fluorophenylamino)-5,7,7-trimethyl-[2H]-imidazo-[1,2-a]pyrazolo[4,3-e]pyrimidin-4(5H)-one]
minimal effective dose (C57BL/6 mice): 0.1 mg/kg
minimal effective dose (rats): 0.1 mg/kg
